Source: patent US20260347353A1, “INDOLIZINE DERIVATIVES FOR TREATING CANCER” (Antares Therapeutics, Inc., priority 2022, published 2026)

Columns and labels:
[1] = system: NUGC3 cells (p53 Y220C); assay: Cell Proliferation Assay (CellTiter-Glo), NUGC3 p53 Y220C; assay type: cell-based; details: Homo sapiens, NUGC-3, 120 h, 5 days, read-out: CTG NUGC3 P53 Y220C IC50
Description: (§1) Inducible p53 Y220C and R273H constructs (Tet-One inducible expression system; Takara) were stably expressed in NCIH1299 cells by lentiviral transduction. NUGC3, A549, BxPC3, T3M4, HuH7, HCC2935, MFE296, NCIH1299, NCIH1299-inducible p53 Y220C, and NCIH1299-inducible p53 R273H cell lines were used for cell proliferation assay. 250-500 cells were seeded in each well of 384 plate and then compounds were dispensed into each well using Echo or Tecan. After 5 days of incubation, equal volume of CellTiter-Glo reagent (G7570; Promega) was added into each well and the plate was incubated at room temperature for 10 minutes with shaking. The luminescent signal was measured by PheraStar microplate reader and IC50 was calculated.

[2] = system: NCIH1299-inducible p53 Y220C cells; assay: Cell Proliferation Assay (CellTiter-Glo), NCIH1299-inducible p53 Y220C; assay type: cell-based; details: Homo sapiens, NCI-H1299, 120 h, 5 days, read-out: CTG H1299 P53 Y220C IC50
Description: as §1

[3] = target: p53 Y220C (Homo sapiens, UniProt P04637, Y220C); assay: Luciferase Reporter Assay, p53 Y220C (NCIH1299 cells with inducible p53 Y220C and p53 response element-luciferase); assay type: cell-based; details: 6 hour compound treatment, read-out: Luc P53 Y220C AC50
Description: Luciferase reporter (Luc) driven by p53 response element (LTV-p53-Luc (SKU #: LTLR007); G&P Biosciences) and inducible p53 Y220C construct (Tet-One inducible expression system; Takara) were stably expressed in NCIH1299 cells by lentiviral transduction. The cells were then used for p53 reporter assay. 5,000 cells were seeded in each well of 384 plate and cultured in 0.5 ug/mL doxycycline (D3072; Sigma) containing medium for 24 hours before compound treatment. After 6 hour of compound treatment, equal volume of One-Glo reagent (E6110; Promega) was added to each well and the plate was incubated for 5 minutes with shaking at room temperature. The luciferase activity was immediately measured with PheraStar microplate reader. Luciferase activity was stimulated by 10 uM of a tool compound as positive control and AC50 was calculated.

[4] = target: T1, p53 Y220C mutant protein (amino acid residues 94-293) (Homo sapiens, UniProt P04637, Y220C); assay: Surface Plasmon Resonance (SPR) assay, p53 Y220C Kd_kinetic; details: multi-cycle kinetics, 16 or 20 °C, pH 7.5, 1:1 binding model
T1 construct: p53 Y220C mutant protein (amino acid residues 94-293)
Description: SPR experiments are performed on a Biacore 8K instrument. […] Compounds are 2-fold, 7-point serial diluted; the top concentration varies depending on the potency. Compound binding affinities are measured in the multi-cycle kinetics mode, at 30 μL/min flow rate with 60 seconds association time and 120 seconds dissociation time. The running buffer contains 50 mM Tris, pH 7.5, 100 mM NaCl, 1 mM DTT, 0.01% Brij35, 0.05% Tween-20 and 1% DMSO. The assay temperature is maintained at 16 or 20 °C and data are fit into the 1:1 binding model using the Biacore Insight Evaluation software.

T1 sequence (P04637 94-293, stated change not applied): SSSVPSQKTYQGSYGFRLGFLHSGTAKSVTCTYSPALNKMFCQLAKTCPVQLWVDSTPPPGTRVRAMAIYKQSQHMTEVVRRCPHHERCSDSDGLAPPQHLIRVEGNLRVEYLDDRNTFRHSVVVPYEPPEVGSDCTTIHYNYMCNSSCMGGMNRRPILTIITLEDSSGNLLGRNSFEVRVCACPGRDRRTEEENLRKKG

Row | AC50 [3] [nM] | Kd [4] [nM] | Compound | IC50 [1] [nM] | IC50 [2] [nM]
1 | ≥ 3000 | 100 to 1000 | CN1CC[C@@H](Nc2cccn3c(SC(F)(F)F)c(-c4noc(CNC(=O)C5(c6ccc(F)cc6)CC5)n4)cc23)[C@@H](F)C1 [Example 46, N-{[3-(8-{[(3S,4R)-3-fluoro-1-methylpiperidin-4-yl]amino}-3-[(trifluoromethyl)sulfanyl]indolizin-2-yl)-1,2,4-oxadiazol-5-yl]methyl}-1-(4-fluorophenyl)cyclopropane-1-carboxamide] | ≥ 3000 | ≥ 3000
2 | ≥ 3000 | 10 to 100 | C[C@@H](NC(=O)C1CC1)c1nc(-c2cc3c(N[C@@H]4CCN(C)C[C@@H]4F)cccn3c2SC(F)(F)F)no1 (relative stereo) [Example 51, N-[(1R*)-1-[3-(8-{[(3S,4R)-3-fluoro-1-methylpiperidin-4-yl]amino}-3-[(trifluoromethyl)sulfanyl]indolizin-2-yl)-1,2,4-oxadiazol-5-yl]ethyl]cyclopropanecarboxamide] | ≥ 3000 | ≥ 3000
3 | < 750 | < 10 | CN1CC[C@@H](Nc2cccn3c(SC(F)(F)F)c(-c4noc(CNC(=O)c5cnc(N6CCOCC6)o5)n4)cc23)[C@@H](F)C1 [Example 66, N-{[3-(8-{[(3S,4R)-3-fluoro-1-methylpiperidin-4-yl]amino}-3-[(trifluoromethyl)sulfanyl]indolizin-2-yl)-1,2,4-oxadiazol-5-yl]methyl}-2-(morpholin-4-yl)-1,3-oxazole-5-carboxamide] | < 750 | < 750
4 | ≥ 3000 | ≥ 1000 | CN1CC[C@@H](Nc2cccn3c(SC(F)(F)F)c(-c4nsc(CNC(=O)c5ccn(C(C)(C)C)c5)n4)cc23)[C@@H](F)C1 [Example 6, 1-tert-butyl-N-{[3-(8-{[(3S,4R)-3-fluoro-1-methylpiperidin-4-yl]amino}-3-[(trifluoromethyl)sulfanyl]indolizin-2-yl)-1,2,4-thiadiazol-5-yl]methyl}pyrrole-3-carboxamide] | ≥ 3000 | ≥ 3000
5 | < 750 | < 10 | CNC(=O)c1ccc(NCc2nc(-c3cc4c(N[C@@H]5CCN(C)C[C@@H]5F)cccn4c3SC(F)(F)F)no2)nc1 [Example 54, 6-({[3-(8-{[(3S,4R)-3-fluoro-1-methylpiperidin-4-yl]amino}-3-[(trifluoromethyl)sulfanyl]indolizin-2-yl)-1,2,4-oxadiazol-5-yl]methyl}amino)-N-methylpyridine-3-carboxamide] | < 750 | < 750
6 | < 750 | < 10 | CN1CC[C@@H](Nc2cccn3c(SC(F)(F)F)c(-c4noc(CNC(=O)C#CC5(NC(=O)OC(C)(C)C)CC5)n4)cc23)[C@@H](F)C1 [Example 44, tert-butyl N-{1-[2-({[3-(8-{[(3S,4R)-3-fluoro-1-methylpiperidin-4-yl]amino}-3-[(trifluoromethyl)sulfanyl]indolizin-2-yl)-1,2,4-oxadiazol-5-yl]methyl}carbamoyl)eth-1-yn-1-yl]cyclopropyl}carbamate] | 750 to 1500 | < 750
7 | 750 to 1500 | < 10 | CN1CC[C@@H](Nc2cccn3c(SC(F)(F)F)c(-c4noc(CNC(=O)[C@H]5COCCO5)n4)cc23)[C@@H](F)C1 [Example 29] | 750 to 1500 | 750 to 1500
8 | ≥ 3000 | 10 to 100 | COc1ccc2cc(C(=O)NCc3nc(-c4cc5c(N[C@@H]6CCN(C)C[C@@H]6F)cccn5c4SC(F)(F)F)no3)n(C)c2c1 [Example 35, N-{[3-(8-{[(3S,4R)-3-fluoro-1-methylpiperidin-4-yl]amino}-3-[(trifluoromethyl)sulfanyl]indolizin-2-yl)-1,2,4-oxadiazol-5-yl]methyl}-6-methoxy-1-methylindole-2-carboxamide] | 1500 to 3000 | 1500 to 3000
9 | < 750 | < 10 | CN1CC[C@@H](Nc2cccn3c(SC(F)(F)F)c(-c4noc(CNC(=O)c5cccc6c5NC(=O)C6)n4)cc23)[C@@H](F)C1 [Example 17, N-{[3-(8-{[(3S,4R)-3-fluoro-1-methylpiperidin-4-yl]amino}-3-[(trifluoromethyl)sulfanyl]indolizin-2-yl)-1,2,4-oxadiazol-5-yl]methyl}-2-oxo-1,3-dihydroindole-7-carboxamide] | < 750 | 750 to 1500
10 | 750 to 1500 | 10 to 100 | CN1CC[C@@H](Nc2cccn3c(SC(F)(F)F)c(-c4noc(CNC(=O)c5cc(C#N)cs5)n4)cc23)[C@@H](F)C1 [Example 38, 4-cyano-N-{[3-(8-{[(3S,4R)-3-fluoro-1-methylpiperidin-4-yl]amino}-3-[(trifluoromethyl)sulfanyl]indolizin-2-yl)-1,2,4-oxadiazol-5-yl]methyl}thiophene-2-carboxamide] | < 750 | < 750
11 | ≥ 3000 | 10 to 100 | COC(C)(C)C(=O)NCc1nc(-c2cc3c(N[C@@H]4CCN(C)C[C@@H]4F)cccn3c2SC(F)(F)F)no1 [Example 61, N-{[3-(8-{[(3S,4R)-3-fluoro-1-methylpiperidin-4-yl]amino}-3-[(trifluoromethyl)sulfanyl]indolizin-2-yl)-1,2,4-oxadiazol-5-yl]methyl}-2-methoxy-2-methylpropanamide] | ≥ 3000 | ≥ 3000
12 | < 750 | < 10 | CN1CC[C@@H](Nc2cccn3c(SC(F)(F)F)c(-c4noc(CNC(=O)c5ccns5)n4)cc23)[C@@H](F)C1 [Example 27, N-{[3-(8-{[(3S,4R)-3-fluoro-1-methylpiperidin-4-yl]amino}-3-[(trifluoromethyl)sulfanyl]indolizin-2-yl)-1,2,4-oxadiazol-5-yl]methyl}-1,2-thiazole-5-carboxamide] | < 750 | 750 to 1500
13 | < 750 | < 10 | CN1CC[C@@H](Nc2cccn3c(SC(F)(F)F)c(-c4noc(CNC(=O)c5ccc6c(c5)C(C)(C)C(=O)N6)n4)cc23)[C@@H](F)C1 [Example 15, N-{[3-(8-{[(3S,4R)-3-fluoro-1-methylpiperidin-4-yl]amino}-3-[(trifluoromethyl)sulfanyl]indolizin-2-yl)-1,2,4-oxadiazol-5-yl]methyl}-3,3-dimethyl-2-oxo-1H-indole-5-carboxamide] | < 750 | < 750
14 | 750 to 1500 | 10 to 100 | CN1CC[C@@H](Nc2cccn3c(SC(F)(F)F)c(-c4noc(CNC(=O)c5sccc5OC(F)F)n4)cc23)[C@@H](F)C1 [Example 41, 3-(difluoromethoxy)-N-{[3-(8-{[(3S,4R)-3-fluoro-1-methylpiperidin-4-yl]amino}-3-[(trifluoromethyl)sulfanyl]indolizin-2-yl)-1,2,4-oxadiazol-5-yl]methyl}thiophene-2-carboxamide] | 750 to 1500 | 750 to 1500
15 | 1500 to 3000 | 10 to 100 | Cc1c(C(=O)NCc2nc(-c3cc4c(N[C@@H]5CCN(C)C[C@@H]5F)cccn4c3SC(F)(F)F)no2)sc2nc[nH]c(=O)c12 [Example 14, N-{[3-(8-{[(3S,4R)-3-fluoro-1-methylpiperidin-4-yl]amino}-3-[(trifluoromethyl)sulfanyl]indolizin-2-yl)-1,2,4-oxadiazol-5-yl]methyl}-5-methyl-4-oxo-3H-thieno[2,3-d]pyrimidine-6-carboxamide] | 750 to 1500 | 750 to 1500
